Paper PMC3020970, “K70Q Adds High-Level Tenofovir Resistance to “Q151M Complex” HIV Reverse Transcriptase through the Enhanced Discrimination Mechanism” (PLoS ONE, 2011)
Like-named read-outs stand apart in the source and are kept apart here. Marks after values point to notes of the source that are not given here.

Columns and labels:
Experiment in all cases: Primer extension assay
Type in all cases: biochemical
HIV-1 RT K70Q = molecular target: T1, HIV-1 RT K70Q (Human immunodeficiency virus type 1 group M subtype B, UniProt P03366, K669Q)
T1 construct: made in house; host or cells: Escherichia coli BL21
Method: (§1) RT sequences coding for the p66 and p51 subunits of BH10 were cloned in the pRT dual vector, which is derived from pCDF-2 with LIC duet minimal adaptor (Novagen), using restriction sites PpuMI and SacI for the p51 subunit, and SacII and AvrII for the p66 subunit. RT was expressed in the Escherichia coli strain BL21 (Invitrogen) and purified by nickel affinity chromatography and MonoQ anion exchange chromatography. RT concentrations were determined spectrophotometrically based on absorption at […] using a calculated extinction coefficient (261,610 M^−1 cm^−1). The active site concentration of the various RT preparations was calculated as described below.
(§2) DNA oligomers were synthesized by Integrated DNA Technologies (Coralville, IA). An 18-nucleotide DNA primer fluorescently labeled with Cy3 at the 5′ end (P18; 5′-Cy3 GTC CCT GTT CGG GCG CCA-3′) and a 100-nucleotide DNA template (T100; 5′-TAGTGTGTGCCCGTCTGTTGTGTGACTCTGGTAACTAGAGATCCCTCAGACCCTTTTAGTCAGTGTGGAAAATCTCTAGCAGTGGCGCCCGAACAGGGAC-3′) were used in primer extension assays. An 18-nucleotide DNA primer 5′-labeled with Cy3 (P18; 5′-Cy3 GTC ACT GTT CGA GCA CCA-3′) and a 31-nucleotide DNA template (T31; 5′- CCATAGCTAGCATTGGTGCTCGAACAGTGAC-3′) were used in the ATP rescue assay and pre-steady state kinetic experiments.
(§3) The enzyme (20 nM active sites) was incubated with 20 nM template/primer at 37°C in a buffer containing 50 mM Tris-HCl, pH 7.8 and 50 mM NaCl. The DNA synthesis was initiated by the addition of 1 µM dNTP and 10 mM MgCl2. The primer extension assays were carried out in the presence or absence of varying concentrations of TFV-DP. The reactions were terminated after 15 min by adding equal volume of 100% formamide containing traces of bromophenol blue. The extension products were resolved on a 7 M urea-15% polyacrylamide gel, and visualized by phosphor-imaging (FLA 5100, Fujifilm, Tokyo). We followed standard protocols that utilize the Multi Gauge software (Fujifilm) to quantitate primer extension, [44]. The results from dose response experiments were plotted using Prism 4 (GraphPad Software Inc., CA) and IC50 values for TFV-DP were obtained at midpoint concentrations.

HIV-1 RT K70Q/Q151Mc = molecular target: T2, HIV-1 RT K70Q/Q151Mc (Human immunodeficiency virus type 1 group M subtype B, UniProt P03366, A661V/F676L/F715Y/K669Q/Q750M/V674I)
T2 construct: made in house; host or cells: Escherichia coli BL21
Method: as §1, §2, §3

HIV-1 RT WT = molecular target: T3, HIV-1 RT WT (Human immunodeficiency virus type 1 group M subtype B, UniProt P03366)
T3 construct: made in house; host or cells: Escherichia coli BL21
Method: as §1, §2, §3

HIV-1 RT Q151Mc = molecular target: T4, HIV-1 RT Q151Mc (Human immunodeficiency virus type 1 group M subtype B, UniProt P03366, A661V/F676L/F715Y/Q750M/V674I)
T4 construct: made in house; host or cells: Escherichia coli BL21
Method: as §1, §2, §3

[1] = with 3.5 mM ATP, read-out: IC50 of TFV-DP, with ATP
[2] = without ATP, read-out: IC50 of TFV-DP, without ATP

CC(Cn1cnc2c(N)ncnc21)OCP(=O)(O)OP(=O)(O)OP(=O)(O)O (stereo in doubt) [TFV-DP, tenofovir-diphosphate]
Excision enhancement due to ATP (IC50 with ATP/IC50 without ATP) (HIV-1 RT K70Q): 2.9 fold
IC50 (HIV-1 RT K70Q; [1]): 2.31 ± 0.27 µM
Fold increase in IC50 vs WT RT, with ATP (HIV-1 RT K70Q; with ATP): (1.2) fold
Fold increase in IC50 vs WT RT, without ATP (HIV-1 RT K70Q; without ATP): (1.3) fold
IC50 (HIV-1 RT K70Q; [2]): 0.802 ± 0.099 µM
Excision enhancement due to ATP (IC50 with ATP/IC50 without ATP) (HIV-1 RT K70Q/Q151Mc): 2.9 fold
IC50 (HIV-1 RT K70Q/Q151Mc; [1]): 7 ± 0.226 µM
Fold increase in IC50 vs WT RT, with ATP (HIV-1 RT K70Q/Q151Mc; with ATP): (3.8) fold
Fold increase in IC50 vs WT RT, without ATP (HIV-1 RT K70Q/Q151Mc; without ATP): (3.7) fold
IC50 (HIV-1 RT K70Q/Q151Mc; [2]): 2.39 ± 0.353 µM
Excision enhancement due to ATP (IC50 with ATP/IC50 without ATP) (HIV-1 RT WT): 2.9 fold
IC50 (HIV-1 RT WT; [1]): 1.85 ± 0.197 µM
Fold increase in IC50 vs WT RT, with ATP (HIV-1 RT WT; with ATP): (1) ^b fold
Fold increase in IC50 vs WT RT, without ATP (HIV-1 RT WT; without ATP): (1) ^b fold
IC50 (HIV-1 RT WT; [2]): 0.641 ± 0.083 µM
Excision enhancement due to ATP (IC50 with ATP/IC50 without ATP) (HIV-1 RT Q151Mc): 2.7 fold
IC50 (HIV-1 RT Q151Mc; [1]): 4 ± 0.341 µM
Fold increase in IC50 vs WT RT, with ATP (HIV-1 RT Q151Mc; with ATP): (2.1) fold
Fold increase in IC50 vs WT RT, without ATP (HIV-1 RT Q151Mc; without ATP): (2.3) fold
IC50 (HIV-1 RT Q151Mc; [2]): 1.5 ± 0.09 µM
